Measurements published in BindingDB's records for doi:10.1021/jm8014537 (Pfizer, 2010).

Molecular target: CYP2D6 (Homo sapiens, UniProt P10635)
Experiment: Inhibition of CYP2D6 in human liver microsomes

CYP2D6, sequence (P10635 whole entry): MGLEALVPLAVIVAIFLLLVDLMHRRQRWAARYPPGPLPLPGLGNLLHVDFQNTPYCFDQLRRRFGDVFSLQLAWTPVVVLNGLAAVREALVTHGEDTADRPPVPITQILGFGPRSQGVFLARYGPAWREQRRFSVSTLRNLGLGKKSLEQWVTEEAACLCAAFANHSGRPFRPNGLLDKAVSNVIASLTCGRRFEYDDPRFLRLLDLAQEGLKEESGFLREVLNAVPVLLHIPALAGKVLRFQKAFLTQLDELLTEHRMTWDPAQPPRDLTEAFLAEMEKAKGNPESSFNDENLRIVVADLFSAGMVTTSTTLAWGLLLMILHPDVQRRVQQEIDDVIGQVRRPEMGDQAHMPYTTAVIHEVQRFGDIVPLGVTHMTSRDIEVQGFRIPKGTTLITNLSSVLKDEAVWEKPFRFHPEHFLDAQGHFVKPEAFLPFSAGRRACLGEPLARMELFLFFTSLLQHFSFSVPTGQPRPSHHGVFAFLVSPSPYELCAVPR

IC50 [µM]	Structure (SMILES)
> 6	Cc1cc(C)n2nc(CC3C(=O)CC(CCc4ccc(C(C)(C)O)c(F)c4)(C4CCCC4)OC3=O)nc2n1 (configuration not stated) [6-cyclopentyl-3-[(5,7-dimethyl[1,2,4]triazolo[1,5-a]pyrimidin-2-yl)methyl]-6-{2-[3-fluoro-4-(1-hydroxy-1-methylethyl)phenyl]ethyl}-4-hydroxy-5,6-dihydro-2H-pyran-2-one]
> 6	CCC(C#N)(CC)c1ccc(CCC2(C3CCCC3)CC(=O)C(Cc3nc4nc(C)cc(C)n4n3)C(=O)O2)cc1F (configuration not stated) [2-[4-(2-{2-cyclopentyl-5-[(5,7-dimethyl[1,2,4]triazolo[1,5-a]pyrimidin-2-yl)methyl]-4-hydroxy-6-oxo-3,6-dihydro-2H-pyran-2-yl}ethyl)-2-fluorophenyl]-2-ethylbutanenitrile]
